Structures can show the parent of a compound that is named as a salt.
These molecules were tested against SARS-CoV-2 Mac1 (Severe acute respiratory syndrome coronavirus 2, UniProt P0DTD1) (assay: biochemical). Details: 100 µM; inhibitor.

Structure (SMILES)	%inhibition [%]
CC(C(=O)O)c1cccc(Oc2ccccc2)c1 (centres unmarked) [Fenoprofen Calcium]	9.442
CC(=O)[C@@]1(O)CC[C@H]2[C@@H]3C[C@H](C)C4=CC(=O)C=C[C@]4(C)[C@@]3(F)[C@@H](O)C[C@@]21C [Fluorometholone]	0

Same assay, conditions: read-out: %inhibition

Structure (SMILES)	inhibition at 100 µM [%]
Oc1ccc(C2CNCCc3c2cc(O)c(O)c3Cl)cc1 (centres unmarked) [Fenoldopam mesylate]	0
CC(C(=O)O)c1cccc(Oc2ccccc2)c1 (centres unmarked) [Fenoprofen calcium hydrate]	8.96
O=C1NCC2(CCN(CCc3ccccc3)CC2)O1 [Fenspiride HCl]	26.5
Clc1ccc(C(Cn2ccnc2)OCc2ccc(Sc3ccccc3)cc2)c(Cl)c1 (centres unmarked) [Fenticonazole Nitrate]	0
CC(C)C(=O)Oc1ccc(CO)cc1[C@H](CCN(C(C)C)C(C)C)c1ccccc1 [Fesoterodine Fumarate]	0
CC(C)(C(=O)O)c1ccc(C(O)CCCN2CCC(C(O)(c3ccccc3)c3ccccc3)CC2)cc1 (centres unmarked) [Fexofenadine HCl]	9.61
CCc1c(Cl)c(O)c(Cl)c(O)c1C(=O)O[C@H]1[C@H](O)[C@H](OC)[C@H](OC/C2=C\C=C\C[C@H](O)/C(C)=C/[C@H](CC)[C@@H](O[C@@H]3OC(C)(C)[C@@H](OC(=O)C(C)C)[C@H](O)[C@@H]3O)/C(C)=C/C(C)=C/C[C@@H]([C@@H](C)O)OC2=O)O[C@@H]1C [Fidaxomicin]	5.76
O=C(Nc1nc2cccc(-c3ccc(CN4CCS(=O)(=O)CC4)cc3)n2n1)C1CC1 [Filgotinib (GLPG0634)]	17
CCCCc1nc(C)c(CC(=S)N(C)C)c(=O)n1Cc1ccc(-c2ccccc2-c2nnn[nH]2)cc1 [Fimasartan]	22.3
CC(C)(C)NC(=O)[C@H]1CC[C@H]2[C@@H]3CC[C@H]4NC(=O)C=C[C@]4(C)[C@H]3CC[C@]12C [Finasteride]	0
CCCCCCCCc1ccc(CCC(N)(CO)CO)cc1 [Fingolimod (FTY720) HCl]	33
CN1CC[C@H](c2c(O)cc(O)c3c(=O)cc(-c4ccccc4Cl)oc23)[C@H](O)C1 [Flavopiridol (Alvocidib)]	50.4
Cc1c(-c2ccccc2)oc2c(C(=O)OCCN3CCCCC3)cccc2c1=O [Flavoxate HCl]	0
O=c1[nH]c2ccccc2n1CCN1CCN(c2cccc(C(F)(F)F)c2)CC1 [Flibanserin]	0
CCC(=O)c1c(O)cc(O)cc1O [Flopropione]	7.24
CS(=O)(=O)c1ccc([C@@H](O)[C@@H](CF)NC(=O)C(Cl)Cl)cc1 [Florfenicol]	30.4
O=c1[nH]c(=O)n([C@H]2C[C@H](O)[C@@H](CO)O2)cc1F [Floxuridine]	0
COC(=O)Nc1nc2cc(C(=O)c3ccc(F)cc3)ccc2[nH]1 [Flubendazole]	4.36
Cc1onc(-c2c(F)cccc2Cl)c1C(=O)N[C@@H]1C(=O)N2[C@@H]1SC(C)(C)[C@@H]2C(=O)O [Flucloxacillin sodium]	1.41
OC(Cn1cncn1)(Cn1cncn1)c1ccc(F)cc1F [Fluconazole]	16.6
Nc1nc(=O)[nH]cc1F [Flucytosine]	0
Nc1nc(F)nc2c1ncn2[C@@H]1O[C@H](CO)[C@@H](O)[C@@H]1O [Fludarabine]	12.7
CC(=O)OCC(=O)[C@@]1(O)CC[C@H]2[C@@H]3CCC4=CC(=O)CC[C@]4(C)[C@@]3(F)[C@@H](O)C[C@@]21C [Fludrocortisone acetate]	0
O=C(O)c1ccccc1Nc1cccc(C(F)(F)F)c1 [Flufenamic acid]	3.41

Structure (SMILES)	inhibition at 100 µM [%]
CCOC(=O)c1ncn2c1CN(C)C(=O)c1cc(F)ccc1-2 [Flumazenil]	5.44
CC1CCc2cc(F)cc3c(=O)c(C(=O)O)cn1c23 (centres unmarked) [Flumequine]	0
C[C@@H]1C[C@H]2[C@@H]3C[C@H](F)C4=CC(=O)C=C[C@]4(C)[C@@]3(F)[C@@H](O)C[C@]2(C)[C@@]1(O)C(=O)CO [Flumethasone]	28.1
Cc1c(Nc2ncccc2C(=O)O)cccc1C(F)(F)F [Flunixin Meglumin]	0
CC1(C)O[C@@H]2C[C@H]3[C@@H]4C[C@H](F)C5=CC(=O)C=C[C@]5(C)[C@@]4(F)[C@@H](O)C[C@]3(C)[C@]2(C(=O)CO)O1 [Fluocinolone Acetonide]	0
CC(=O)OCC(=O)[C@@]12OC(C)(C)O[C@@H]1C[C@H]1[C@@H]3C[C@H](F)C4=CC(=O)C=C[C@]4(C)[C@@]3(F)[C@@H](O)C[C@@]12C [Fluocinonide]	24.1
O=C1OC2(c3ccc(O)cc3Oc3cc(O)ccc32)c2ccccc21 [Fluorescein]	24.9
CC(=O)O[C@]1(C(C)=O)CC[C@H]2[C@@H]3C[C@H](C)C4=CC(=O)C=C[C@]4(C)[C@@]3(F)[C@@H](O)C[C@@]21C [Fluorometholone Acetate]	22.8
O=c1[nH]cc(F)c(=O)[nH]1 [Fluorouracil (5-Fluoracil, 5-FU)]	0
OCCN1CCN(CC/C=C2/c3ccccc3Sc3ccc(C(F)(F)F)cc32)CC1 [Flupenthixol dihydrochloride]	12.3
CCOC(=O)Nc1ccc(NCc2ccc(F)cc2)nc1N [Flupirtine maleate]	4.99
CC(C(=O)O)c1ccc(-c2ccccc2)c(F)c1 (centres unmarked) [Flurbiprofen]	2.76
CC(C)C(=O)Nc1ccc([N+](=O)[O-])c(C(F)(F)F)c1 [Flutamide]	0
CCC(=O)O[C@]1(C(=O)SCF)[C@H](C)C[C@H]2[C@@H]3C[C@H](F)C4=CC(=O)C=C[C@]4(C)[C@@]3(F)[C@@H](O)C[C@@]21C [Fluticasone propionate]	9.66
COCCCC/C(=N\OCCN)c1ccc(C(F)(F)F)cc1 [Fluvoxamine maleate]	0
Nc1nc(=O)c2nc(CNc3ccc(C(=O)N[C@@H](CCC(=O)O)C(=O)O)cc3)cnc2[nH]1 [Folic acid]	11.4
Cc1cn[nH]c1 [Fomepizole]	0
CO[C@H]1O[C@H](COS(=O)(=O)O)[C@@H](O[C@@H]2O[C@@H](C(=O)O)[C@@H](O[C@H]3O[C@H](COS(=O)(=O)O)[C@@H](O[C@@H]4O[C@H](C(=O)O)[C@@H](O[C@H]5O[C@H](COS(=O)(=O)O)[C@@H](O)[C@H](O)[C@H]5NS(=O)(=O)O)[C@H](O)[C@H]4O)[C@H](OS(=O)(=O)O)[C@H]3NS(=O)(=O)O)[C@H](O)[C@H]2OS(=O)(=O)O)[C@H](O)[C@H]1NS(=O)(=O)O [Fondaparinux Sodium]	0
COc1cc2c(Oc3ccc(NC(=O)C4(C(=O)Nc5ccc(F)cc5)CC4)cc3F)ccnc2cc1OCCCN1CCOCC1 [Foretinib (GSK1363089)]	0
C[C@]12CCC(=O)C(O)=C1CC[C@@H]1[C@@H]2CC[C@]2(C)C(=O)CC[C@@H]12 [Formestane]	0
C[C@@H](O[C@H]1OCCN(Cc2nn(P(=O)(O)O)c(=O)[nH]2)[C@H]1c1ccc(F)cc1)c1cc(C(F)(F)F)cc(C(F)(F)F)c1 [Fosaprepitant dimeglumine salt]	3
O=C(O)P(=O)(O)O [Foscarnet Sodium]	2.46
C[C@@H]1O[C@@H]1P(=O)(O)O [Fosfomycin Disodium]	0
O=C(O)c1ccccc1OP(=O)(O)O [Fosfosal]	4.81

Reference: publication doi:[…]/2021.10.07.463234v2 (biorxiv, 2021)
